Experimental data reported in the supplement of paper PMC10307832.

Compound: CS(=O)(=O)CCNCc1ccc(-c2ccc3ncnc(Nc4ccc(OCc5cccc(F)c5)c(Cl)c4)c3c2)o1 [Lapatinib]
Experiment: relative viability (nuclei count vs DMSO), 5 days (fraction); higher = more cells survive
How it was run: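 Viability is treated-well nuclei as a fraction of vehicle-well nuclei, reported as the median across plates. Before counting, lung cancer cell lines were kept overnight at 37 °C in 1536-well plates, pinned with five √10-spaced library-drug doses on vehicle-anchored plates, and left 5 days without medium change, then fixed, permeabilised and Hoechst-stained in one step, imaged at 4× and counted by MetaXpress. A plate passed only if control CV was below 25% and at least one doubling occurred.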

Row | Cell Line | relative viability (0.02 µM) | relative viability (0.06325 µM) | relative viability (0.2 µM) | relative viability (0.6325 µM) | relative viability (2 µM) | relative viability (2 µM, anchor plate)
1 | RERF-LC-KJ | 0.992 | 0.88 | 0.905 | 0.826 | 0.737 | 0.861
2 | EMC-BAC-2 | – | 0.8 | 0.734 | 0.985 | 1.04 | 0.917
3 | NCI-H522 | – | 0.746 | 0.855 | 1.01 | 0.791 | –
4 | NCI-H1651 | 0.942 | 0.811 | 0.994 | 0.926 | 0.989 | 0.827
5 | IA-LM | 0.816 | 0.977 | 1.04 | 0.902 | 0.983 | 0.848
6 | NCI-H520 | 0.987 | 0.93 | 1.03 | 1.09 | 0.998 | 0.848
7 | NCI-H1793 | – | 0.642 | 0.732 | 0.803 | 0.544 | 0.714
8 | NCI-H647 | 0.776 | 0.897 | 0.767 | 1.02 | 0.806 | 1.06
9 | HCC-44 | 0.602 | 0.997 | 0.983 | 1.03 | 0.893 | 1.02
10 | HCC-827 | 0.91 | 0.983 | 1.05 | 1 | – | –
11 | NCI-H2170 | 0.953 | 0.913 | 0.762 | 0.72 | 0.332 | 0.276
12 | Calu-6 | 0.972 | 0.971 | 1.02 | 1.03 | 0.926 | 1.04
13 | HCC-366 | – | 1.02 | 0.981 | 1.02 | 0.99 | 1.02
14 | NCI-H2405 | 0.674 | 0.83 | 0.971 | 1.01 | 0.905 | 1.04
15 | NCI-H1648 | 0.671 | 0.667 | 0.548 | 0.625 | 0.392 | –
16 | LCLC-97TM1 | – | – | 1.08 | 1 | 1.03 | 1.01
17 | EPLC-272H | – | 0.733 | 0.959 | 1 | 0.783 | 0.993
18 | NCI-H1755 | 1.01 | 0.914 | 0.936 | 0.967 | 0.981 | 1.03
19 | NCI-H1437 | 0.919 | 0.988 | 0.987 | 0.914 | 0.918 | 0.794
20 | PC-3 [JPC-3] | – | 1 | 0.991 | 0.977 | 0.755 | 0.46
21 | NCI-H727 | 0.839 | – | 1.11 | 0.778 | 0.776 | 0.796
22 | NCI-H1666 | 0.936 | 0.871 | 0.89 | 0.862 | 0.708 | 0.702
23 | NCI-H1792 | – | – | 0.928 | 1 | 0.762 | 0.919
24 | LCLC-103H | 0.779 | 0.951 | 0.997 | 1.02 | 0.975 | –
25 | BEN | 0.793 | 0.907 | 0.935 | 1 | 0.962 | 0.74
26 | COR-L 105 | 0.828 | 0.8 | 0.857 | 0.598 | 0.381 | 0.367
27 | LC-2-ad | – | 0.895 | 0.984 | 0.983 | 0.896 | 0.967

Row | Cell Line | relative viability (0.02 µM) | relative viability (0.06325 µM) | relative viability (0.2 µM) | relative viability (0.6325 µM) | relative viability (2 µM) | relative viability (2 µM, anchor plate)
28 | NCI-H358 | 0.693 | 0.478 | 0.611 | 0.569 | 0.335 | 0.474
29 | HARA | 0.52 | 0.749 | 0.943 | 0.93 | 0.755 | 0.77
30 | CAL-12T | 0.763 | 0.978 | 0.909 | 0.776 | 0.678 | 0.681
31 | NCI-H1975 | 0.968 | 0.8 | 0.904 | 0.936 | 0.77 | 0.946
32 | PC-14 | 0.914 | 0.954 | 0.965 | 0.958 | 0.644 | 0.343
33 | NCI-H1944 | 0.781 | 0.658 | 0.964 | 0.853 | 0.757 | 0.846
34 | A-427 | – | 0.978 | 1 | 0.954 | 0.963 | 1.05
35 | H3255 | 0.908 | 0.936 | 0.938 | 0.889 | 0.489 | 0.25
36 | NCI-H23 | – | – | 1.02 | 1.06 | 0.938 | 1.11
37 | NCI-H2087 | 0.786 | 0.833 | 1.12 | 0.952 | 0.975 | 0.983
38 | SK-LU-1 | 0.799 | 0.89 | 1.01 | 1.11 | 1.03 | 0.85
39 | NCI-H2347 | 0.7 | 0.999 | 0.943 | 1.05 | 0.904 | 0.905
40 | NCI-H596 | – | 0.939 | 0.967 | 1.14 | 0.919 | 1.03
41 | ABC-1 | 0.721 | 0.793 | 0.939 | 1.04 | 0.912 | 1.18
42 | NCI-H661 | 0.987 | 0.919 | 0.957 | 0.822 | 0.705 | 0.52
43 | ChaGo-K-1 | 0.789 | 0.943 | 0.945 | 1 | 0.797 | –
44 | LU99A | 0.883 | 0.757 | 0.852 | 0.871 | 0.897 | 1.03
45 | SW 1573 | 0.952 | 0.896 | 0.992 | 1.06 | 0.896 | 1.12
46 | NCI-H1734 | – | 0.794 | 1.01 | 1.07 | 0.943 | 1.07
47 | NCI-H2126 | – | 0.765 | 0.946 | 0.994 | 0.927 | 0.759
48 | NCI-H838 | 0.954 | 0.82 | 0.97 | 0.947 | 0.897 | 0.992
49 | A549 | 0.982 | 0.875 | 0.867 | 0.957 | 0.861 | 0.993
50 | HCC-78 | – | 0.734 | 0.922 | 0.935 | 0.793 | 0.801
51 | NCI-H2228 | 0.902 | 0.857 | 0.823 | 1.04 | 0.863 | 1.14
52 | NCI-H460 | 0.952 | 0.984 | 0.969 | 0.969 | 0.868 | 0.988
53 | NCI-H2023 | 0.796 | 0.744 | 0.926 | 0.998 | 0.823 | 0.862
54 | HOP-62 | 0.7 | 1.04 | 1.01 | 1.02 | 1.01 | 1.04

Row | Cell Line | relative viability (0.02 µM) | relative viability (0.06325 µM) | relative viability (0.2 µM) | relative viability (0.6325 µM) | relative viability (2 µM) | relative viability (2 µM, anchor plate)
55 | NCI-H2009 | 1.01 | 0.978 | 1.02 | 1.01 | 1 | 0.84
56 | NCI-H1915 | – | 0.975 | 1 | 0.999 | 0.977 | 0.996
57 | NCI-H650 | – | 0.912 | 0.919 | 1.04 | 0.831 | 0.926
58 | NCI-H1299 | 0.985 | 1.02 | 1 | 0.99 | 1.01 | 0.95
59 | NCI-H2342 | 0.742 | 0.825 | 0.798 | 0.86 | 0.856 | –
60 | NCI-H3122 | 0.912 | 0.981 | 0.992 | 0.965 | 1 | 1.03
61 | SW 900 | – | 0.765 | 0.958 | 0.836 | 0.712 | –
62 | NCI-H2085 | 0.83 | 0.854 | 0.958 | 0.937 | 0.859 | 0.773
63 | NCI-H1703 | 0.907 | 0.895 | 0.944 | 1.01 | 0.825 | 1.05
64 | NCI-H1395 | – | 0.896 | 1.02 | 0.919 | 0.742 | 1.05
65 | NCI-H1650 | 0.809 | 0.73 | 0.851 | 0.834 | 0.737 | 0.805
66 | EKVX | 0.645 | 0.755 | 0.943 | 0.811 | 0.336 | 0.216
67 | HCC-15 | – | 0.847 | 1.06 | 1.01 | 0.919 | 0.836
68 | LK-2 | 0.852 | – | 0.914 | 1.13 | 1.11 | 1.02
69 | SK-MES-1 | 0.94 | 0.902 | 0.886 | 0.776 | 0.462 | 0.497
70 | COR-L23 | 0.978 | 1 | 1.11 | 0.919 | 1.02 | 0.934
71 | NCI-H1623 | 0.856 | 0.649 | 0.576 | 0.728 | 0.328 | –
72 | NCI-H1355 | – | 0.828 | 0.938 | 0.972 | 0.746 | 1
73 | NCI-H441 | – | 0.735 | 0.995 | 1.09 | 1.36 | –
74 | NCI-H1563 | 1.04 | 0.832 | 0.936 | 0.909 | 0.88 | 0.977
75 | NCI-H322M | 0.886 | 0.717 | 0.896 | 0.882 | 0.733 | 0.598
76 | EBC-1 | 0.993 | 0.979 | 0.945 | 0.971 | – | –
77 | NCI-H1993 | 0.903 | – | 0.928 | 0.873 | 0.745 | 0.837
78 | LOU-NH91 | 0.569 | 0.785 | 0.844 | 0.844 | 0.74 | 0.799
79 | 201T | 0.713 | 0.802 | 0.963 | 0.979 | 0.887 | 1.04
80 | LXF-289 | 0.923 | 0.993 | 0.96 | 0.957 | 0.869 | 0.915
